From ChEMBL document CHEMBL1212694, “Discovery and characterization of a marine bacterial SAM-dependent chlorinase” (Nat Chem Biol, 2008)
Numbering of substitutions follows the chain as printed. The source made the active and inactive calls. The rule behind the calls is not given here.

Assays:
[1] = test system: Salinispora tropica CNB-440; test: Activity at Salinispora tropica CNB-440 wild type recombinant SalL expressed in Escherichia coli BL21(DE3) after 30 mins by HPLC analysis relative to S-Adenosyl methionine
[2] = test system: T1, Adenosyl-chloride synthase (Salinispora tropica (strain ATCC BAA-916 / DSM 44818 / CNB-440)), A4X3Q0 [W129F]; test: Activity at Salinispora tropica CNB-440 recombinant SalL W129F mutant expressed in Escherichia coli BL21(DE3) after 30 mins by HPLC analysis relative to S-Adenosyl methionine
T1 sequence (whole entry): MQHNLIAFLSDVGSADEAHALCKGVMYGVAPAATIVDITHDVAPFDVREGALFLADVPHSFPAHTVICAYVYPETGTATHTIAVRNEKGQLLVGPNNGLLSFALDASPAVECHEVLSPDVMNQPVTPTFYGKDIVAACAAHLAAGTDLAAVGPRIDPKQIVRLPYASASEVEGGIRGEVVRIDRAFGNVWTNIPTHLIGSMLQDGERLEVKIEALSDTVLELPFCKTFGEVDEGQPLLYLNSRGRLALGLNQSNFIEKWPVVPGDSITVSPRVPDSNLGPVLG

[3] = test system: T2, Adenosyl-chloride synthase (Salinispora tropica (strain ATCC BAA-916 / DSM 44818 / CNB-440)), A4X3Q0 [Y70T]; test: Activity at Salinispora tropica CNB-440 recombinant SalL Y70T mutant expressed in Escherichia coli BL21(DE3) after 30 mins by HPLC analysis relative to S-Adenosyl methionine
T2 sequence (whole entry): T1 sequence (whole entry) with Y70T, F129W

[4] = test system: T3, Adenosyl-chloride synthase (Salinispora tropica (strain ATCC BAA-916 / DSM 44818 / CNB-440)), A4X3Q0 [Y70T,G131S]; test: Activity at Salinispora tropica CNB-440 recombinant SalL Y70T/G131S mutant expressed in Escherichia coli BL21(DE3) after 30 mins by HPLC analysis relative to S-Adenosyl methionine
T3 sequence (whole entry): T1 sequence (whole entry) with Y70T, F129W, G131S

[5] = test system: Salinispora tropica CNB-440; test: Activity at Salinispora tropica CNB-440 wild type recombinant SalL expressed in Escherichia coli BL21(DE3) assessed as formation of S-Adenosyl methionine after 30 mins by HPLC analysis
[6] = test system: Salinispora tropica CNB-440; test: Effect on Salinispora tropica CNB-440 wild type recombinant SalL expressed in Escherichia coli BL21(DE3)-mediated S-Adenosyl methionine formation after 30 mins by HPLC analysis
[7] = test system: Salinispora tropica CNB-440; test: Ratio of Kcat to Km for Salinispora tropica CNB-440 wild type recombinant SalL expressed in Escherichia coli BL21(DE3) for formation of S-Adenosyl methionine
[8] = test system: Salinispora tropica CNB-440; test: Activity at Salinispora tropica CNB-440 wild type recombinant SalL expressed in Escherichia coli BL21(DE3) after 30 mins by HPLC analysis
[9] = test system: Salinispora tropica CNB-440; test: Ratio of Kcat to Km for Salinispora tropica CNB-440 wild type recombinant SalL expressed in Escherichia coli BL21(DE3)

## Nc1ncnc2c1ncn2[C@@H]1O[C@H](CI)[C@@H](O)[C@H]1O
[1]
  Activity: 100%
[2]
  Activity: 12%
[3]
  Activity: 1.4%
[4]
  Activity: 0.8%
[5]
  Activity: 5560%
[6]
  Km: 4.6 µM
  kcat: 0.833 s⁻¹
[7]
  kcat/Km: 181000 M⁻¹ s⁻¹

## C[S+](CC[C@H](N)C(=O)[O-])C[C@H]1O[C@@H](n2cnc3c(N)ncnc32)[C@H](O)[C@@H]1O (some centres not stated)
[8]
  Km: 1 µM
  kcat: 0.015 s⁻¹
[9]
  kcat/Km: 15000 M⁻¹ s⁻¹

## Nc1ncnc2c1ncn2[C@@H]1O[C@H](CCl)[C@@H](O)[C@H]1O
[1]
  Activity: 100%
[2]
  Activity: 11%
[3]
  Activity: 1.1%
[4]
  Activity: 2.5%
[5]
  Activity: 1300%
[6]
  Km: 0.2 µM
  kcat: 0.2 s⁻¹
[7]
  kcat/Km: 1e+06 M⁻¹ s⁻¹

## Nc1ncnc2c1ncn2[C@@H]1O[C@H](CBr)[C@@H](O)[C@H]1O
[5]
  Activity: Active
[6]
  Km: Active
  kcat: Active
[7]
  kcat/Km: Active

## CSCC[C@H](N)C(=O)O
[5]
  Activity: 1300%
[6]
  Km: 2600 µM
  kcat: 0.2 s⁻¹
[7]
  kcat/Km: 76.7 M⁻¹ s⁻¹
